Experimental data published in patent US4048305A, “Tripeptides, their esters and amides, and anti-ulcera activity thereof” (Dr. L. Zambeletti S.p.A., priority 1975, dated 1977).
Square brackets hold non-standard residues; d marks the D form. Peptide text beside a SMILES is read from it.

Experiments:
[1] = tested on: female rats of "Wistar" strain; test: Gastro-protective activity, Shay method (pylorus tying) in rats; assay type: in vivo, rat; conditions: 100 mg/Kg in peanut oil, 18 hours after administration; for Rat (Shay test) Ulcer depth M ± es: arbitrary values 1 to 4, peanut oil controls 2.4 ± 0.5; for Rat (Shay test) No. of ulcers M ± es: ulcers in the rumen, peanut oil controls 10.7 ± 2.2
Description: Gastro-protective activity of the products was assayed on rats by employing the Shay method (Shay H., Komarov, S. A., Fels, S. S., Meranze, D;, Gruenstein, M. and Siplet, H:Gastroenterology, 5, 43-61, 1945).
The investigation was performed on female rats of "Wistar" strain, of the average weight of 200 g., which had been held, before experiment, in the cages for 10 days at standard ambient conditions (temperature 22° C, humidity about 50%) on a controlled diet (Altromin).
72 hours before the test the animals, distributed into individual cages, were deprived of food while leaving water "ad libitum".
At the end of this time, the animals were anaesthetized with ether and, by opening the abdomen, the tying of the pylorus was effected as well as, thereafter, the administration of the products in the dose of 100 mg/Kg dissolved into peanut oil. The suture of the abdomen was then performed and the animals were then placed again into their respective contention cages.
For each product 15 animals were used whilst another set of 15 animals, which served as control, was given peanut oil at the same volume as that of the treated ones.
After 18 hours from administration of the products, the animals were killed under chloroformic narcosis, the stomachs were removed and opened along the greter curvature and then fixed on cork supports for counting the number of ulcers present in the "rumen" and for evaluating the depth of the lesions by arbitrarily assigning values ranging from 1 to 4 according to the intensity of the lesion.

[2] = tested on: "Swiss" strain male mouse; test: Acute toxicity (lethality) in mouse, oral; assay type: in vivo; conditions: for Mouse LD50: Swiss male mouse, fasted 15 hours, suspended in peanut oil, gastric probe
Description: The acute toxicity was assayed in "Swiss" strain male mouse weighing 20-24 g. which were held, before the test, in the cages for 10 days at standard ambient conditions (temperature 22° C, humidity about 50%) and kept on a controlled diet (Altromin).
Before the test, the animals were deprived of food for 15 hours, while leaving water "ad libitum".
Lethality was determined on 10 animals for each group-dose by using on the whole 60 animals for each product. For administration, the products were suspended into peanut oil and administered at the maximum volume of 0.1 ml/10 g. of body weight, by means of a gastric probe.

Row | Structure (SMILES) | Rat (Shay test) Ulcer depth M ± es [1] | Rat (Shay test) No. of ulcers M ± es [1] | Mouse LD50 [2] [mg/Kg/os] | LD50 ([2]; mouse, oral, in peanut oil)
1 | CC(=O)N[C@@H](Cc1ccccc1)C(=O)N[C@@H](Cc1ccccc1)C(=O)N[C@@H](Cc1c[nH]cn1)C(N)=O [N-acetyl-l-phenylalanyl-l-phenylalanyl-l-histidineamide] (Ac-Phe-Phe-His-NH2) | 1.1 ± 0.4 | 3.1 ± 1.7 | > 5000 | –
2 | COC(=O)C(Cc1c[nH]cn1)NC(=O)C(Cc1ccccc1)NC(=O)C(Cc1ccccc1)NC(C)=O (mixture of isomers) [N-acetyl-dl-phenylalanyl-dl-phenylalanyl-dl-histidine methylester] | 1.7 ± 0.2 | 6.7 ± 1.7 | > 5000 | –
3 | CC(=O)N[C@@H](Cc1ccccc1)C(=O)N[C@H](Cc1ccccc1)C(=O)N[C@@H](Cc1c[nH]cn1)C(N)=O [N-acetyl-l-phenylalanyl-d-phenylalanyl-l-histidineamide] (Ac-Phe-[dF]-His-NH2) | 1.3 ± 0.2 | 6.2 ± 1.6 | > 5000 | –
4 | COC(=O)[C@H](Cc1c[nH]cn1)NC(=O)[C@H](Cc1ccccc1)NC(=O)[C@H](Cc1ccccc1)NC(C)=O [N-acetyl-l-phenylalanyl-l-phenylalanyl-l-histidine methylester] | 1.1 ± 0.3 | 4.6 ± 1.1 | > 5000 | –
5 | COC(=O)[C@H](Cc1c[nH]cn1)NC(=O)[C@@H](Cc1ccccc1)NC(=O)[C@H](Cc1ccccc1)NC(C)=O [N-acetyl-l-phenylalanyl-d-phenylalanyl-l-histidine-methylester] | 1.5 ± 0.4 | 5.6 ± 1.5 | > 5000 | –
6 | CNC(=O)[C@H](Cc1c[nH]cn1)NC(=O)[C@H](Cc1ccccc1)NC(=O)[C@H](Cc1ccccc1)NC(C)=O [N-acetyl-l-phenylalanyl-l-phenylalanyl-l-histidine methylamide] (Ac-Phe-Phe-His-NHMe) | 1.4 ± 0.3 | 5.8 ± 1.4 | > 5000 | –
7 | CC(=O)N[C@@H](Cc1ccccc1)C(=O)N[C@@H](Cc1ccccc1)C(=O)N[C@@H](Cc1c[nH]cn1)C(=O)O [N-acetyl-l-phenylalanyl-l-phenylalanyl-l-histidine] (Ac-Phe-Phe-His-OH) | 2.1 ± 0.3 | 8.4 ± 1.8 | ≥ 5000 | approximately 5 g./Kg
